Data reported in US8124605B2, “Compositions and methods for modulating a kinase cascade” (Kinex Pharmaceuticals, LLC, priority 2007, dated 2012).

Key:
Type in all cases: cell-based
[1] = biological target: T1, JAK1 (Homo sapiens, UniProt P23458); assay: JAK phosphorylation/activation by flow cytometry, pSTAT6 staining in IL-4 stimulated U-937 cells; conditions: drug 30 min, then IL-4
T1 construct: U-937 cells, histiocytic lymphoma cell line; endogenous in cells; host or cells: U-937 (ATCC CRL-1593.2)
T1 sequence (P23458 whole entry): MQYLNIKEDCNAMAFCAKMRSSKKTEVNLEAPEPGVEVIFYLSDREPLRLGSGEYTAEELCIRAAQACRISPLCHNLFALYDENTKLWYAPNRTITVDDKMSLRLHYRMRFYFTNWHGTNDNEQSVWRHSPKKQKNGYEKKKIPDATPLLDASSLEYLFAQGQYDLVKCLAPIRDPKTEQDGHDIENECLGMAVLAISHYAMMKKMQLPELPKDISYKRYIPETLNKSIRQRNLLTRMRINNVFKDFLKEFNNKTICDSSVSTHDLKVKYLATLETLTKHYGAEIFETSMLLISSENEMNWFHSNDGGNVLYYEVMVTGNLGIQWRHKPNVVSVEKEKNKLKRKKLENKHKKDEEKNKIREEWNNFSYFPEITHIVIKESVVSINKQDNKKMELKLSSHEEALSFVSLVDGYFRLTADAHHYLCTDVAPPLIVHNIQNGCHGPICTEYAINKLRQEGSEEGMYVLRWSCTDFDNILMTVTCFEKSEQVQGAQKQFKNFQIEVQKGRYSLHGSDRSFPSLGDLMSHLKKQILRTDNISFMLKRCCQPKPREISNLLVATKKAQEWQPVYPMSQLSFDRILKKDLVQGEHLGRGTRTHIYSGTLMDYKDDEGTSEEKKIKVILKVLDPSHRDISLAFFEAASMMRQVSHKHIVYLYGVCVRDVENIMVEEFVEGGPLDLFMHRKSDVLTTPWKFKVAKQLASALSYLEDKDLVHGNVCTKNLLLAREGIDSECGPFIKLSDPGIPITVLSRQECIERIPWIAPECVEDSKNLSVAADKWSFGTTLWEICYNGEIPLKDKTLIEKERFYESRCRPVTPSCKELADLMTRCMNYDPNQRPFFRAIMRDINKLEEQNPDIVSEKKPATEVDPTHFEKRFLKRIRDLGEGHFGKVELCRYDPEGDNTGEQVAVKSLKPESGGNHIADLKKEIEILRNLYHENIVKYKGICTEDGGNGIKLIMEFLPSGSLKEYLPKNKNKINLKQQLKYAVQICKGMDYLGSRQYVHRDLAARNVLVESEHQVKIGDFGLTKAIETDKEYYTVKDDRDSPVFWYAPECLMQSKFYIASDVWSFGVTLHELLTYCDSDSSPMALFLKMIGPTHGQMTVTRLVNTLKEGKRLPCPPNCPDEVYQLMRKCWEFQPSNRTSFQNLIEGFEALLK
Protocol: (§1) The protocol used to analyze the effect of compounds of the invention on JAK phosphorylation/activation is adapted from: Krutzik and Nolan, Cytometry Part A 55A:61-70 (2003).
(§2) Briefly, U-937 cells, histiocytic lymphoma cell line; ATCC No. CRL-1593.2, were treated with compounds of the invention or commercial JAK inhibitors. Cells were then stimulated with IL-4, to engage the JAK/STAT signaling pathway. Cells were fixed with formaldehyde to “freeze” the phosphorylation states of intracellular proteins. Cells were next permeabilized, and stained with mAbs directed against the phosphorylated STAT (pSTAT) proteins. The positive shift in fluorescence due to pSTAT staining serves as a surrogate to JAK phosphorylation/activation: no flow cytometric mAbs specific to JAKs exist, so the proximal downstream signaling event, STAT phosphorylation, is measured. A decrease in fluorescence, due to drug incubation prior to IL-4 stimulation, is an indirect indication of JAK inhibition. The following antibodies were used: apSTAT5-PE: monoclonal antibody to the intracellular STAT5a protein phosphorylated at Tyrosine 694; conjugated to the fluorochrome phycoerythrin (PE); BD No. 612567 and apSTAT6-Alex647: monoclonal antibody to the intracellular STAT6 protein phosphorylated at Tyrosine 641; conjugated to the fluorochrome Alexa Fluor 647; BD No. 612601. The detailed protocol is described below:
(§3) Resuspend U-937 cells @ 8×10^5 cells/mL in complete culture medium (RPMI-1640/10% FBS).
(§4) Add 0.5 mL cell suspension to each well of 24-well tissue culture plate.
(§5) Add drug treatment (compounds, controls) for 30 min @ 37° C., 5% CO2.
(§6) Add cytokine/growth factor to stimulate; 15-30 min @ 37° C. (1 μL/0.5 mL cell suspension; IL-4, IL-2, IL-15=20 ng/mL)
(§7) Transfer cells to 5 mL Flow tubes.
(§8) Add 16% Formaldehyde directly to cell culture to obtain final concentration of 1.5% formaldehyde. (47 μL formaldehyde+0.5 mL cell culture)
(§9) Incubate cells in fixative for 15 min @ 37° C., 5% CO2.
(§10) Add 3 mL cold “Staining Media” (PBS/1% BSA) to each tube; centrifuge cells @ 1100 RPM, 3 min. Discard supernatant.
(§11) Resuspend cells with vigorous vortexing in 200 μL ice-cold Methanol.
(§12) Incubate cells on ice, 30 min.
(§13) Wash cells twice in 2 mL “Staining Medium” (centrifuge cells @ 1100 RPM, 3 min). Discard supernatant.
(§14) Add 8 μL of fluorophore-conjugated, phosphoprotein-specific mAbs to cells. Incubate cells at RT, 60 min, in the dark.
(§15) Wash cells with 4 mL Staining Media. Centrifuge cells @ 1100 RPM, 3 min. Discard supernatant.
(§16) Resuspend cells in 350 μL Staining Media.
(§17) Acquire cellular events on BD FACSCalibur cytometer.

[2] = tested on: SYF/c-Src527F cell line; assay: Cell proliferation assay (MTT assay), GI50; conditions: Mus musculus, 72 h, 3 days incubation
Protocol: (§18) The GI50s for several of the compounds of the invention are assayed as described herein.
(§19) Cell line and culture media—the human colon tumor cell line HT-29 was obtained from Dr. Irwin Gelman (Roswell Park Cancer Institute, Buffalo, N.Y.) and maintained in McCoy's 5A medium supplemented with 2% fetal bovine serum and penicillin-streptomycin. SYF/c-Src527F cell line was also obtained from Dr. Irwin Gelman and maintained in Dulbecco's modified Eagle's medium (DMEM) supplemented with 2% bovine serum and penicillin-streptomycin. Both cell lines were incubated in an atmosphere containing 5% CO2 at 37° C.
(§20) Cell proliferation assay (MTT assay)-HT-29 (7,000 cells) and SYF/c-Src527F (4,000 cells) cells were plated in 120 μl of culture medium per well of 96-well plate. Cells were incubated overnight before drug treatment. Test compounds were diluted in culture medium in a separate 96-well plate to yield 10× concentrations of test dose (50 nM, 500 nM, 5 μM, 50 μM, and 500 μM). 13.3 μl of the 10× compound was added to each well of cells to achieve the final test concentrations (5 nM, 50 nM, 500 nM, 5 μM and 50 μM). After 3 days incubation, 10 μl of MTT (Thiazolyl Blue Tetrazolium Bromide, 5 mg/ml in PBS) was added to each well and incubate for 3 hours at 37° C. After removal of culture medium, 100 μl of isopropanol containing 40 mM HCl was added to each well and incubate for 10 minutes on a shaker to dissolve the MTT formazan. Optical density (OD) at 570 nm was then measured using microplate reader and cell growth inhibition (percentage of growth) by each concentration of drug was calculated as: % growth=100×[(T−T0)/(C−T0)] (T: OD of the test well exposure to test drug; C: OD of the control well without drug treatment; T0: OD at time zero). Growth inhibition curves and GI50 were determined using GraphPad Prism 5 statistical software.

[3] = tested on: human colon tumor cell line HT-29; assay: Cell proliferation assay (MTT assay), GI50; conditions: HT-29, 72 h, 3 days incubation, read-out: GI50 HT29
Protocol: as §18, §19, §20

[4] = biological target: T2, JAK3 (Homo sapiens, UniProt P52333); assay: JAK phosphorylation/activation by flow cytometry, pSTAT5 staining in IL-4 stimulated U-937 cells; conditions: drug 30 min, then IL-4
T2 construct: U-937 cells, histiocytic lymphoma cell line; endogenous in cells; host or cells: U-937 (ATCC CRL-1593.2)
T2 sequence (P52333 1-1124): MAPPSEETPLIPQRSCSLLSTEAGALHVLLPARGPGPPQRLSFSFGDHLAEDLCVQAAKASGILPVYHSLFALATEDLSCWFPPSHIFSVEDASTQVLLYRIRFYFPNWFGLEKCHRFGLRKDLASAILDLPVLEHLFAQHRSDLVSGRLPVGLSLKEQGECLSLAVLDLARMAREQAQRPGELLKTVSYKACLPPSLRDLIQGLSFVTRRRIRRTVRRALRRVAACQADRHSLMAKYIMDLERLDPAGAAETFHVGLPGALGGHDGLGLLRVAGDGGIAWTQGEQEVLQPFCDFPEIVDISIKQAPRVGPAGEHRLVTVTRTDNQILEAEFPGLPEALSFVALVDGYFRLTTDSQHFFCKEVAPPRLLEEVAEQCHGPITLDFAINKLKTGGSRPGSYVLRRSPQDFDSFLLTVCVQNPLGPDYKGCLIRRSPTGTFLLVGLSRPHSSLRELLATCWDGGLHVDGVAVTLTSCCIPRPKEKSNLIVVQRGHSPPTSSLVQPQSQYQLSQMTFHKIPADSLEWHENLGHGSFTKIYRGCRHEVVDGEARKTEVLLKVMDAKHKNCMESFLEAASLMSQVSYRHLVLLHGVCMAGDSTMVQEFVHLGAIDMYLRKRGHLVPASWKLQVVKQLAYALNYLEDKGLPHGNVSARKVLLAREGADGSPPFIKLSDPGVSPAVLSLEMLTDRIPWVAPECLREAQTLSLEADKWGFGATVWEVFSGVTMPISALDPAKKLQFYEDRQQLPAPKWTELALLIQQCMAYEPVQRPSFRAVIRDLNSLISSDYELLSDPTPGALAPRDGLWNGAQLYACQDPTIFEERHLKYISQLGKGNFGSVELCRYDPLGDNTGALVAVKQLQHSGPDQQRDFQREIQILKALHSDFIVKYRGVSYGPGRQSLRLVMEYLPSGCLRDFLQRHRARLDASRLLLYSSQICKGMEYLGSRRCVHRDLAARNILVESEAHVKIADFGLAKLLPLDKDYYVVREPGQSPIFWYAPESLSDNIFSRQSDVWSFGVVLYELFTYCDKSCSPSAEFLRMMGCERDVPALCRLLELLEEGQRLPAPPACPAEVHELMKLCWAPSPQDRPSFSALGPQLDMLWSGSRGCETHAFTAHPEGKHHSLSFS
Protocol: as §1, §2, §3, §4, §5, §6, §7, §8, §9, §10, §11, §12, §13, §14, §15, §16, §17

| Compound | JAK1 pStat6-Alexa647 Signal [1] | JAK1 pStat6-Alexa647 Signal/Background [1] | GI50 [2] | GI50 [3] | JAK3 pStat5-PE Signal [4] | JAK3 pStat5-PE Signal/Background [4] |
| --- | --- | --- | --- | --- | --- | --- |
| O=C(Cc1ccccc1)NCc1ccc(-c2ccccc2)cc1 [Compound 125] | 29.48 | 7.05 | 750 nM | 460 nM | 4.58 | 1.56 |
| O=C(NCCc1ccc(-c2ccccc2)cc1)c1ccccc1 [Compound 126] | 30.85 | 7.38 | 3100 nM | 2800 nM | 5.34 | 1.82 |
| c1ccc(CNCCc2ccc(-c3ccccc3)cc2)cc1 [Compound 127] | 18.81 | 4.50 | 1400 nM | 3300 nM | 3.38 | 1.15 |
| O=C(NCc1ccccc1)Nc1ccc(-c2ccccc2)cn1 [Compound 129] | 23.06 | 5.51 | 24700 nM | 5400 nM | 4.15 | 1.42 |
| O=C(NCc1ccccc1)Oc1ccc(-c2ccccc2)cc1 [Compound 130] | 31.77 | 7.60 | 7600 nM | 27100 nM | 5.21 | 1.78 |
| O=S(=O)(Cc1ccc(Br)cc1)NCc1ccc(-c2ccccc2)cc1 [Compound 134] | 21.47 | 5.14 | 4900 nM | 5600 nM | 3.66 | 1.25 |
| c1ccc(CCSCc2ccc(-c3ccccc3)cc2)cc1 [Compound 135] | 17.15 | 4.10 | 18600 nM | 9700 nM | 3.48 | 1.19 |
| [O-][S+](CCc1ccccc1)Cc1ccc(-c2ccccc2)cc1 (centres unmarked) [Compound 137] | 22.03 | 5.27 | 970 nM | 1800 nM | 3.71 | 1.27 |
| O=S(=O)(Cc1ccc(-c2ccccc2)cc1)NCc1ccccc1 [Compound 138] | 28.65 | 6.85 | 1400 nM | 13900 nM | 4.10 | 1.40 |
| O=S(=O)(CCc1ccccc1)Cc1ccc(-c2ccccc2)cc1 [Compound 139] | 25.08 | 6.00 | 2200 nM | 2900 nM | 4.41 | 1.51 |
| O=C(Cc1ccc(-c2ccccc2)cc1)NCc1cccc(F)c1 [Control A] | 23.79 | 5.69 |  |  | 4.12 | 1.41 |
| O=C(Cc1ccc(-c2ccc(OCCN3CCOCC3)cc2)cn1)NCc1ccccc1 [Control B] | 19.03 | 4.55 |  |  | 3.42 | 1.17 |
| COc1cc2ncnc(Nc3ccc(O)cc3)c2cc1OC [WHI-P131] | 33.80 | 8.09 |  |  | 3.19 | 1.09 |
| COc1cc2ncnc(Nc3ccc(O)c(Br)c3)c2cc1OC [WHI-P154] | 14.54 | 3.48 |  |  | 1.63 | 0.56 |
| O=C(Cc1ccc(-c2ccccc2)cc1)NCc1cccc(F)c1 [drawing 586] |  |  | 460 nM | 270 nM |  |  |
| O=C(Cc1ccc(-c2ccc(OCCN3CCOCC3)cc2)cn1)NCc1ccccc1 [drawing 587] |  |  | 23 nM | 26 nM |  |  |
